Legend:
[1] = Untargeted metabolomics of blood serum and brain tissue; format: in vivo, mouse; settings: inferred from similarly elevated levels in serum and brain tissue of old mice
Procedure: Blood serum and hippocampal brain tissue was removed from young and old mice and snap-frozen in liquid nitrogen after determining the weight. Sample analysis was conducted by Metabolon, Inc. using a proprietary series of organic and aqueous extractions to remove the protein content while allowing maximum recovery of small molecules. The extract was divided into two parts: one for analysis by LC and the other for analysis by GC. TurboVap® (Zymark) was used to remove the organic solvent content. Each sample was then frozen and dried under vacuum. The exact methodology can be provided by Metabolon, Inc. as their standard protocol for untargeted mass spectrometry metabolomics.
Samples were snap-frozen upon collection and stored at −80° C. until further processing at Metabolon, Inc. 52. Briefly, recovery standards were added prior to the first step in the extraction process for quality control purposes. […] Three types of controls were analyzed in concert with the experimental samples: samples generated from a pool of spike-in controls extensively characterized by Metabolon, Inc. or generated from a small portion of each experimental sample of interest served as technical replicate throughout the data set; extracted water samples served as process blanks; and a cocktail of standards spiked into every analyzed sample allowed instrument performance monitoring. […]

[2] = system: C57BL/6J mice; assay: Novel object recognition (NOR) test (recognition memory); format: in vivo, mouse; settings: for recognition memory (Novel Object Recognition test): systemic (intraperitoneal) injection, FIG. 11 right; for NOR test performance: 5 mg/kg i.p. 1 h before
Procedure: In order to acutely deplete the gut microbiota, 15-16 months old SPF males were treated via oral gavage with a mixture of antibiotics (ABX), containing Cefoxitin (Santa Cruz Biotechnology), Gentamicin (Sigma-Aldrich) Metronidazole (Sigma-Aldrich), and Vancomycin (Hikma-pharma), each 10 mg/kg in sterile 1×PBS, for three consecutive days. On the fourth day, the mice were treated with one dose of Clindamycin hydrochloride (33.3 mg/kg) (Sigma-Aldrich). Fecal microbiota transplantations (FMTs) were started 24 h later. To deplete csf1-dependent cells in vivo, including microglia, mice were provided with CSF1R-inhibitor PLX5622 (Plexxicon Inc.) mixed into AIN-76A standard chow at 1200 mg/kg (Research Diets Inc.) ad libitum. Respective controls received AIN-76A standard chow. Mice were injected with 5 mg/kg δ-valerobetaine (MCAT, Germany) 1 h before behavioral testing.
For microbiota depletion studies, SPF mice were treated with 1 mg/ml of ampicillin (Auromedics), neomycin sulfate (Fisher), streptomycin (Sigma) and 0.5 mg/ml of vancomycin (Sagent) in the drinking water for 4-5 weeks (Khosravi et al., 2014). These mice were recolonized via FMT, which was achieved by oral gavage of a faecal slurry. Recipient mice had the food removed from the cage for 2 h prior to FMT. The faecal slurry was obtained by pooling faecal pellets from 8-14 donor mice. The pellets were weighed and resuspended by vortexing for 1 min in 1 mL PBS per 300 mg of faeces. After pelleting larger particles by centrifugation at 500×g for 5 min, the supernatant was collected for FMT. Each recipient mouse received 150 μl of faecal slurry by oral gavage. The remaining slurry was stored at −80° C. for 16S rRNA sequencing. Following FMT, the cages of recipient mice were replenished with dirty bedding and fresh faecal pellets from donor mice once and twice a week, respectively. Faecal pellets for 16S rRNA sequencing were collected the day before FMT and at the end of the experiment and were stored at −80° C. for DNA extraction. For re-colonization of ABX treated mice, FMTs from 8 weeks old or 15-16 months old males were undergone. Fresh fecal pellets are collected under a sterile hood and directly thoroughly homogenized in 0.1% L-Cysteine hydrochloride monohydrate in 1×PBS in order to maintain anaerobic microbes. The homogenates were spun down for 1 min, 200 g at 4° C. and the turbid supernatant was used to orally and rectally gavage the recipient mice. The FMT was performed twice 72 h apart.
NNN-trimethyl-5-aminovalerate was dissolved in 0.9% NaCl and administered i.p. at a dose of 200 mg/kg in a volume of 10 ml/kg. As control the vehicle NaCl was injected.
Mice were tested 40 min after drug- or vehicle injection or 4 weeks after FMT. We first performed the training run for the Novel-object recognition test, followed by the T maze test and then 6 h after the training session mice were tested in the Novel object recognition test. Spatial working memory was tested using the continuous spontaneous alternation task in a T-maze as described previously (Spowart-Manning, L. et al). Briefly, animals were set into the base of a T-maze and allowed to explore a randomly assigned T-maze arm until it returned to the base arm. Subsequently, the blocked arm was opened, and the animal was allowed to explore the complete maze. Once one arm of the T-maze was entered, the other arm was blocked until the animal returned to the base arm. Then, the exit of the base arm was blocked for 5 s and the animal was allowed to explore the maze again. The experiment was stopped after 14 free choice arm entries. Arm entries were scored as alternations if an animal chose the opposing arm compared to the arm visited immediately prior to the scored instance. The Novel Object Recognition (NOR) task was applied to evaluate recognition memory as published previously (Antunes, M. & Biala, G. et al). During the habituation phase, each mouse was allowed to explore two similar objects within a total exploration time of 20 s. […]

C[N+](C)(C)CCCCC(=O)[O-] [NNN-trimethyl-5-aminovalerate, 5-(trimethylammonio) pentanoate]
blood-brain barrier crossing [1]: cross the blood-brain barrier | NOR: improvement in learning and memory after FMT from young mice ([2]; old mice (15-16 months) +ABX+yFMT, 5 mg/kg i.p. 1 h before testing, FIG. 10G-H): abolished | recognition memory (Novel Object Recognition test) ([2]; old mice (20-24-month-old)): no additional impairing effects | NOR test performance ([2]; old mice that had received gut microbiota from old mice (old+ABX+oFMT), FIG. 10G-H): no additional deteriorating effect | NOR test performance ([2]; young adult mice (8 weeks), versus vehicle, FIG. 10C-D): significantly worse | recognition memory (Novel Object Recognition test) ([2]; young mice (2-month-old), PBS control): reduced

— patent US20260276656A1, “GUT MICROBIOTA-RELATED METHODS FOR TREATING DEMENTIA AND AGE-DEPENDENT COGNITIVE DECLINE” (Albert-Ludwigs-Universitat Freiburg, priority 2019, published 2026)
